In the NIST ThermoML archive (doi:10.1021/je060271a):
Numbers after ± are expanded uncertainties.

Settings: 283.15 K, Liquid, Vibrating tube method

Question: What does the source list for `CCCCCC(=O)OCC(COC(=O)CCCCC)(COC(=O)CCCCC)COC(=O)CCCCC` [pentaerythritol tetrahexanoate]?
Answer: mass density (12947 kPa): 1011.7 ± 1.2 kg/m3; mass density (12961 kPa): 1011.5 ± 1.2 kg/m3; mass density (12978 kPa): 1011.5 ± 1.2 kg/m3; mass density (12991 kPa): 1011.6 ± 1.2 kg/m3; mass density (13005 kPa): 1011.6 ± 1.2 kg/m3; mass density (13019 kPa): 1011.6 ± 1.2 kg/m3; mass density (13036 kPa): 1011.6 ± 1.2 kg/m3; mass density (13050 kPa): 1011.7 ± 1.2 kg/m3; mass density (13064 kPa): 1011.4 ± 1.2 kg/m3; mass density (13081 kPa): 1011.6 ± 1.2 kg/m3; mass density (13095 kPa): 1011.5 ± 1.2 kg/m3; mass density (13109 kPa): 1011.6 ± 1.2 kg/m3; mass density (13126 kPa): 1011.7 ± 1.2 kg/m3; mass density (13139 kPa): 1011.7 ± 1.2 kg/m3; mass density (13156 kPa): 1011.7 ± 1.2 kg/m3; mass density (13170 kPa): 1011.7 ± 1.2 kg/m3; mass density (13185 kPa): 1011.7 ± 1.2 kg/m3; mass density (13202 kPa): 1011.8 ± 1.2 kg/m3; mass density (13216 kPa): 1011.7 ± 1.2 kg/m3; mass density (13233 kPa): 1011.7 ± 1.2 kg/m3; mass density (13247 kPa): 1011.7 ± 1.2 kg/m3; mass density (13262 kPa): 1011.8 ± 1.2 kg/m3; mass density (13276 kPa): 1011.9 ± 1.2 kg/m3; mass density (13293 kPa): 1011.7 ± 1.2 kg/m3; mass density (13308 kPa): 1011.8 ± 1.2 kg/m3; mass density (13322 kPa): 1011.7 ± 1.2 kg/m3; mass density (13340 kPa): 1011.8 ± 1.2 kg/m3; mass density (13355 kPa): 1011.8 ± 1.2 kg/m3; mass density (13372 kPa): 1011.8 ± 1.2 kg/m3; mass density (13386 kPa): 1011.9 ± 1.2 kg/m3; mass density (13401 kPa): 1011.8 ± 1.2 kg/m3; mass density (13419 kPa): 1012 ± 1.2 kg/m3; mass density (13434 kPa): 1011.8 ± 1.2 kg/m3; mass density (13448 kPa): 1011.8 ± 1.2 kg/m3; mass density (13466 kPa): 1011.8 ± 1.2 kg/m3; mass density (13481 kPa): 1012 ± 1.2 kg/m3; mass density (13496 kPa): 1011.9 ± 1.2 kg/m3; mass density (13514 kPa): 1011.8 ± 1.2 kg/m3; mass density (13529 kPa): 1011.9 ± 1.2 kg/m3; mass density (13544 kPa): 1012 ± 1.2 kg/m3; mass density (13559 kPa): 1012 ± 1.2 kg/m3; mass density (13577 kPa): 1011.9 ± 1.2 kg/m3; mass density (13592 kPa): 1011.9 ± 1.2 kg/m3; mass density (13607 kPa): 1011.9 ± 1.2 kg/m3; mass density (13625 kPa): 1011.8 ± 1.2 kg/m3; mass density (13640 kPa): 1012 ± 1.2 kg/m3; mass density (13655 kPa): 1012.1 ± 1.2 kg/m3; mass density (13669 kPa): 1012 ± 1.2 kg/m3; mass density (13687 kPa): 1012.1 ± 1.2 kg/m3; mass density (13702 kPa): 1012 ± 1.2 kg/m3; mass density (13716 kPa): 1011.8 ± 1.2 kg/m3; mass density (13735 kPa): 1012 ± 1.2 kg/m3; mass density (13750 kPa): 1011.9 ± 1.2 kg/m3; mass density (13765 kPa): 1011.9 ± 1.2 kg/m3; mass density (13782 kPa): 1012.1 ± 1.2 kg/m3; mass density (13797 kPa): 1012.1 ± 1.2 kg/m3; mass density (13810 kPa): 1012.1 ± 1.2 kg/m3; mass density (13827 kPa): 1012.1 ± 1.2 kg/m3; mass density (13842 kPa): 1011.9 ± 1.2 kg/m3; mass density (13855 kPa): 1012 ± 1.2 kg/m3; mass density (13870 kPa): 1012.1 ± 1.2 kg/m3; mass density (13883 kPa): 1012.1 ± 1.2 kg/m3; mass density (13894 kPa): 1012.1 ± 1.2 kg/m3; mass density (13906 kPa): 1012 ± 1.2 kg/m3; mass density (13920 kPa): 1012.1 ± 1.2 kg/m3; mass density (13934 kPa): 1012.3 ± 1.2 kg/m3; mass density (13949 kPa): 1012.2 ± 1.2 kg/m3; mass density (13966 kPa): 1012.1 ± 1.2 kg/m3; mass density (13981 kPa): 1012.1 ± 1.2 kg/m3; mass density (13996 kPa): 1012.2 ± 1.2 kg/m3; mass density (14013 kPa): 1012.1 ± 1.2 kg/m3; mass density (14027 kPa): 1012.2 ± 1.2 kg/m3; mass density (14042 kPa): 1012.1 ± 1.2 kg/m3; mass density (14058 kPa): 1012.2 ± 1.2 kg/m3; mass density (14073 kPa): 1012.3 ± 1.2 kg/m3; mass density (14087 kPa): 1012.2 ± 1.2 kg/m3; mass density (14104 kPa): 1012.2 ± 1.2 kg/m3; mass density (14118 kPa): 1012.1 ± 1.2 kg/m3; mass density (14133 kPa): 1012.2 ± 1.2 kg/m3; mass density (14150 kPa): 1012.1 ± 1.2 kg/m3; mass density (14164 kPa): 1012.3 ± 1.2 kg/m3; mass density (14179 kPa): 1012.3 ± 1.2 kg/m3; mass density (14196 kPa): 1012.2 ± 1.2 kg/m3; mass density (14211 kPa): 1012.2 ± 1.2 kg/m3; mass density (14225 kPa): 1012.2 ± 1.2 kg/m3; mass density (14243 kPa): 1012.1 ± 1.2 kg/m3; mass density (14257 kPa): 1012.3 ± 1.2 kg/m3; mass density (14272 kPa): 1012.3 ± 1.2 kg/m3; mass density (14289 kPa): 1012.3 ± 1.2 kg/m3; mass density (14304 kPa): 1012.3 ± 1.2 kg/m3; mass density (14320 kPa): 1012.4 ± 1.2 kg/m3; mass density (14335 kPa): 1012.4 ± 1.2 kg/m3; mass density (14350 kPa): 1012.3 ± 1.2 kg/m3; mass density (14368 kPa): 1012.2 ± 1.2 kg/m3; mass density (14382 kPa): 1012.4 ± 1.2 kg/m3; mass density (14397 kPa): 1012.4 ± 1.2 kg/m3; mass density (14415 kPa): 1012.6 ± 1.2 kg/m3; mass density (14430 kPa): 1012.3 ± 1.2 kg/m3; mass density (14448 kPa): 1012.4 ± 1.2 kg/m3; mass density (14463 kPa): 1012.3 ± 1.2 kg/m3; mass density (14478 kPa): 1012.3 ± 1.2 kg/m3; mass density (14496 kPa): 1012.4 ± 1.2 kg/m3; mass density (14511 kPa): 1012.4 ± 1.2 kg/m3; mass density (14527 kPa): 1012.4 ± 1.2 kg/m3; mass density (14542 kPa): 1012.5 ± 1.2 kg/m3; mass density (14560 kPa): 1012.4 ± 1.2 kg/m3; mass density (14575 kPa): 1012.4 ± 1.2 kg/m3; mass density (14591 kPa): 1012.4 ± 1.2 kg/m3; mass density (14609 kPa): 1012.6 ± 1.2 kg/m3; mass density (14624 kPa): 1012.5 ± 1.2 kg/m3; mass density (14640 kPa): 1012.4 ± 1.2 kg/m3; mass density (14658 kPa): 1012.5 ± 1.2 kg/m3; mass density (14674 kPa): 1012.5 ± 1.2 kg/m3; mass density (14689 kPa): 1012.4 ± 1.2 kg/m3; mass density (14708 kPa): 1012.4 ± 1.2 kg/m3; mass density (14724 kPa): 1012.5 ± 1.2 kg/m3; mass density (14739 kPa): 1012.5 ± 1.2 kg/m3; mass density (14755 kPa): 1012.5 ± 1.2 kg/m3; mass density (14774 kPa): 1012.5 ± 1.2 kg/m3; mass density (14790 kPa): 1012.6 ± 1.2 kg/m3; mass density (14805 kPa): 1012.6 ± 1.2 kg/m3; mass density (14824 kPa): 1012.6 ± 1.2 kg/m3; mass density (14840 kPa): 1012.7 ± 1.2 kg/m3; mass density (14856 kPa): 1012.7 ± 1.2 kg/m3; mass density (14875 kPa): 1012.6 ± 1.2 kg/m3; mass density (14891 kPa): 1012.7 ± 1.2 kg/m3; mass density (14907 kPa): 1012.7 ± 1.2 kg/m3; mass density (14926 kPa): 1012.7 ± 1.2 kg/m3; mass density (14942 kPa): 1012.6 ± 1.2 kg/m3; mass density (14959 kPa): 1012.8 ± 1.2 kg/m3; mass density (14974 kPa): 1012.7 ± 1.2 kg/m3; mass density (14993 kPa): 1012.7 ± 1.2 kg/m3; mass density (15008 kPa): 1012.6 ± 1.2 kg/m3; mass density (15024 kPa): 1012.8 ± 1.2 kg/m3; mass density (15042 kPa): 1012.7 ± 1.2 kg/m3; mass density (15058 kPa): 1012.8 ± 1.2 kg/m3; mass density (15074 kPa): 1012.7 ± 1.2 kg/m3; mass density (15090 kPa): 1012.8 ± 1.2 kg/m3; mass density (15108 kPa): 1012.8 ± 1.2 kg/m3; mass density (15124 kPa): 1012.8 ± 1.2 kg/m3; mass density (15140 kPa): 1012.8 ± 1.2 kg/m3; mass density (15159 kPa): 1012.7 ± 1.2 kg/m3; mass density (15175 kPa): 1012.9 ± 1.2 kg/m3; mass density (15190 kPa): 1012.9 ± 1.2 kg/m3; mass density (15209 kPa): 1012.8 ± 1.2 kg/m3
